Laboratory results from patent publication US20240108602A1, “TREATMENT OF MENTAL DISORDERS” (GH Research Ireland Limited, priority 2022, published 2024).

Tested on: patients with postpartum depression (PPD)
Assay: Clinical trial of inhaled 5-MeO-DMT (IDR) in patients with postpartum depression
Procedure: The single-arm, open-label clinical trial will involve 15 adult female patients with clinically diagnosed postpartum depression (PPD).
The second dose (12 mg) will only be administered if: • a. A peak experience (total score of ≥75) has not been achieved following the 6 mg dose, and • b. The 6 mg dose was safe and well-tolerated according to the investigator, • c. Any psychoactive effects (PsE) of the prior dose have subsided, and • d. Pre-dose vital parameters and forced expiratory volume in one second (FEV1) are in normal range, or if outside of the normal range, are not clinically significant according to the investigator. • 3. Similarly, a third dose (18 mg) will only be administered if: • a. A peak experience (total score of ≥75) has not been achieved following the 12 mg dose, and • b. The 12 mg dose was safe and well-tolerated according to the investigator, and • c. Any PsE of the prior dose have subsided, and • d. Pre-dose vital parameters and forced expiratory volume in one second (FEV1) are in normal range, or if outside of the normal range, are not clinically significant according to the investigator.
The patients will be assessed for a peak psychedelic experience (based on a patient-scored visual analogue scale, the PE scale), sedation, and other endpoints after dosing.
Follow-up visits are planned for Day 1, and Day 7 after the dosing day.
The following criteria must be met by all patients considered for clinical trial participation: • 1. Is female and in the age range between 18 and 45 years (inclusive) at screening. • 2. Has a body mass index (BMI) in the range of 18.5 and 35 kg/m^2 (inclusive) at screening. • 3. Meets the trial criteria for PPD as assessed by a trial psychiatrist or registered psychologist: • a. Diagnosis of Major Depressive Disorder without psychotic features, confirmed by the Mini-International Neuropsychiatric Interview (MINI), with peri-partum onset that began no earlier than gestation and no later than the first 4 weeks postpartum. • b. Has a Montgomery-Åsberg Depression Rating Scale (MADRS) total score of equal to or greater than 28 at screening and pre-dose on Day 0. • 6. […] Patients must have a negative pregnancy test at screening and on the pre-test day (Day−1). • 5. Is willing to delay start of other antidepressant or anxiety medication until after the end of the trial at Day 7 and agrees to keep any psychotherapy unchanged during the trial.

## COc1ccc2[nH]cc(CCN(C)C)c2c1 [5-MeO-DMT]
PPD patient 1
  ECG, safety laboratory analyses, CADSS: unremarkable
  MADRS response (at least 50% improvement) and MADRS remission (total score 10 or less): fulfilled standard criteria
  reported adverse events (mild, resolved spontaneously): cramping left abdominal pain and headache
PPD patient 1, 2 hr
  MADRS Apparent sadness improvement: 5
  MADRS Apparent sadness score: 0
  MADRS Concentration Difficulties improvement: 0
  MADRS Concentration Difficulties score: 0
  MADRS Inability to Feel improvement: 3
  MADRS Inability to Feel score: 0
  MADRS Inner Tension improvement: 5
  MADRS Inner Tension score: 0
  MADRS Lassitude improvement: 3
  MADRS Lassitude score: 0
  MADRS Pessimistic Thoughts improvement: 4
  MADRS Pessimistic Thoughts score: 0
  MADRS Reduced Sleep improvement: 0
  MADRS Reduced Sleep score: 5
  MADRS Reduced appetite improvement: 0
  MADRS Reduced appetite score: 0
  MADRS Reported sadness improvement: 4
  MADRS Reported sadness score: 0
  MADRS Suicidal Thoughts improvement: 0
  MADRS Suicidal Thoughts score: 0
  Total MADRS improvement: 24
  Total MADRS score: 5
PPD patient 1, Day 1
  BPRS Anxiety improvement: 6
  BPRS Anxiety score: 1
  BPRS Blunted affect improvement: 0
  BPRS Blunted affect score: 1
  BPRS Conceptual disorganization improvement: 0
  BPRS Conceptual disorganization score: 1
  BPRS Depressive Mood improvement: 5
  BPRS Depressive Mood score: 1
  BPRS Disorientation improvement: 0
  BPRS Disorientation score: 1
  BPRS Emotional withdrawal improvement: 4
  BPRS Emotional withdrawal score: 1
  BPRS Excitement improvement: 1
  BPRS Excitement score: 1
  BPRS Grandiosity improvement: 0
  BPRS Grandiosity score: 1
  BPRS Guilt feelings improvement: 5
  BPRS Guilt feelings score: 1
  BPRS Hallucinatory behaviour improvement: 0
  BPRS Hallucinatory behaviour score: 1
  BPRS Hostility improvement: 0
  BPRS Hostility score: 1
  BPRS Mannerisms and Posturing improvement: 0
  BPRS Mannerisms and Posturing score: 1
  BPRS Motor retardation improvement: 0
  BPRS Motor retardation score: 1
  BPRS Somatic Concern improvement: 5
  BPRS Somatic Concern score: 1
  BPRS Suspiciousness improvement: 0
  BPRS Suspiciousness score: 1
  BPRS Tension improvement: 5
  BPRS Tension score: 1
  BPRS Uncooperativeness improvement: 0
  BPRS Uncooperativeness score: 1
  BPRS Unusual Thought Content improvement: 0
  BPRS Unusual Thought Content score: 1
  MADRS Apparent sadness improvement: 5
  MADRS Apparent sadness score: 0
  MADRS Concentration Difficulties improvement: 0
  MADRS Concentration Difficulties score: 0
  MADRS Inability to Feel improvement: 3
  MADRS Inability to Feel score: 0
  MADRS Inner Tension improvement: 5
  MADRS Inner Tension score: 0
  MADRS Lassitude improvement: 3
  MADRS Lassitude score: 0
  MADRS Pessimistic Thoughts improvement: 4
  MADRS Pessimistic Thoughts score: 0
  MADRS Reduced Sleep improvement: 5
  MADRS Reduced Sleep score: 0
  MADRS Reduced appetite improvement: 0
  MADRS Reduced appetite score: 0
  MADRS Reported sadness improvement: 4
  MADRS Reported sadness score: 0
  MADRS Suicidal Thoughts improvement: 0
  MADRS Suicidal Thoughts score: 0
  Total MADRS improvement: 29
  Total MADRS score: 0
PPD patient 1, Day 7
  BIMF TOTAL Δ vs Day 0: 13
  BIMF domain Adjustment % Improvement: 20.00%
  BIMF domain Adjustment score: 6
  BIMF domain Adjustment Δ vs Day 0: 1
  BIMF domain Infant Care % Improvement: 0.00%
  BIMF domain Infant Care score: 12
  BIMF domain Infant Care Δ vs Day 0: 0
  BIMF domain Management % Improvement: 18%
  BIMF domain Management score: 33
  BIMF domain Management Δ vs Day 0: 5
  BIMF domain Mother-Child Interaction score: 17
  BIMF domain Mother-Child Interaction Δ vs Day 0: 2
  BIMF domain Psychological Well-being score: 53
  BIMF domain Psychological Well-being Δ vs Day 0: 9
  BIMF domain Self-Care % Improvement: 44%
  BIMF domain Self-Care score: 13
  BIMF domain Self-Care Δ vs Day 0: 4
  BIMF domain Social Support score: 18
  BIMF domain Social Support Δ vs Day 0: 1
  BIMF item 1 (I am a good mother) score: 6
  BIMF item 1 Δ vs Day 0: 0
  BIMF item 2 (I feel rested) score: 2
  BIMF item 2 Δ vs Day 0: 2
  BIMF item 3 (comfortable with the way I've chosen to feed my baby) score: 6
  BIMF item 3 Δ vs Day 0: 0
  BIMF item 4 (My baby and I understand each other) score: 5
  BIMF item 4 Δ vs Day 0: 0
  BIMF item 5 (able to relax and enjoy time with my baby) score: 6
  BIMF item 5 Δ vs Day 0: 1
  BIMF item 6 (people I can trust to care for my baby when I need a break) score: 6
  BIMF item 6 Δ vs Day 0: 0
  BIMF item 7 Δ vs Day 0: 0
  BIMF item 8 (getting enough adult interaction) score: 6
  BIMF item 8 Δ vs Day 0: 0
  BIMF item 9 (getting enough encouragement from other people) score: 6
  BIMF item 9 Δ vs Day 0: 1
  BIMF item 10 (I trust my own feelings (instincts)) score: 6
  BIMF item 10 Δ vs Day 0: 1
  BIMF item 11 (a little time each week to do something for myself) score: 6
  BIMF item 11 Δ vs Day 0: 1
  BIMF item 12 (taking good care of my baby's physical needs) score: 6
  BIMF item 12 Δ vs Day 0: 0
  BIMF item 13 (taking good care of my physical needs) score: 5
  BIMF item 13 Δ vs Day 0: 1
  BIMF item 14 (good decisions about my baby's health and well being) score: 6
  BIMF item 14 Δ vs Day 0: 0
  BIMF item 15 (My baby and I are getting into a routine) score: 6
  BIMF item 15 Δ vs Day 0: 1
  BIMF item 16 (I worry about how other people judge me) score: 5
  BIMF item 16 Δ vs Day 0: 2
  BIMF item 17 (able to take care of my baby and my other responsibilities) score: 5
  BIMF item 17 Δ vs Day 0: 0
  BIMF item 18 (Anxiety or worry often interferes with my mothering ability) score: 5
  BIMF item 18 Δ vs Day 0: 3
  BIMF item 19 (getting better at taking care of my baby) score: 1
  BIMF item 19 Δ vs Day 0: 1
  BIMF item 20 (satisfied with the job I am doing as a new mother) score: 5
  BIMF item 20 Δ vs Day 0: −1
  BPRS Anxiety improvement: 6
  BPRS Anxiety score: 1
  BPRS Blunted affect improvement: 0
  BPRS Blunted affect score: 1
  BPRS Conceptual disorganization improvement: 0
  BPRS Conceptual disorganization score: 1
  BPRS Depressive Mood improvement: 5
  BPRS Depressive Mood score: 1
  BPRS Disorientation improvement: 0
  BPRS Disorientation score: 1
  BPRS Emotional withdrawal improvement: 4
  BPRS Emotional withdrawal score: 1
  BPRS Excitement improvement: 1
  BPRS Excitement score: 1
  BPRS Grandiosity improvement: 0
  BPRS Grandiosity score: 1
  BPRS Guilt feelings improvement: 5
  BPRS Guilt feelings score: 1
  BPRS Hallucinatory behaviour improvement: 0
  BPRS Hallucinatory behaviour score: 1
  BPRS Hostility improvement: 0
  BPRS Hostility score: 1
  BPRS Mannerisms and Posturing improvement: 0
  BPRS Mannerisms and Posturing score: 1
  BPRS Motor retardation improvement: 0
  BPRS Motor retardation score: 1
  BPRS Somatic Concern improvement: 5
  BPRS Somatic Concern score: 1
  BPRS Suspiciousness improvement: 0
  BPRS Suspiciousness score: 1
  BPRS Tension improvement: 5
  BPRS Tension score: 1
  BPRS Uncooperativeness improvement: 0
  BPRS Uncooperativeness score: 1
  BPRS Unusual Thought Content improvement: 0
  BPRS Unusual Thought Content score: 1
  MADRS Apparent sadness improvement: 5
  MADRS Apparent sadness score: 0
  MADRS Concentration Difficulties improvement: 0
  MADRS Concentration Difficulties score: 0
  MADRS Inability to Feel improvement: 3
  MADRS Inability to Feel score: 0
  MADRS Inner Tension improvement: 4
  MADRS Inner Tension score: 1
  MADRS Lassitude improvement: 3
  MADRS Lassitude score: 0
  MADRS Pessimistic Thoughts improvement: 4
  MADRS Pessimistic Thoughts score: 0
  MADRS Reduced Sleep improvement: 5
  MADRS Reduced Sleep score: 0
  MADRS Reduced appetite improvement: 0
  MADRS Reduced appetite score: 0
  MADRS Reported sadness improvement: 4
  MADRS Reported sadness score: 0
  MADRS Suicidal Thoughts improvement: 0
  MADRS Suicidal Thoughts score: 0
  Total MADRS improvement: 28
  Total MADRS score: 1
PPD patient 1, Day 7, from 92 to 105
  BIMF total score improvement: 14%
PPD patient 1, Discharge
  BPRS Anxiety improvement: 6
  BPRS Anxiety score: 1
  BPRS Blunted affect improvement: 0
  BPRS Blunted affect score: 1
  BPRS Conceptual disorganization improvement: 0
  BPRS Conceptual disorganization score: 1
  BPRS Depressive Mood improvement: 5
  BPRS Depressive Mood score: 1
  BPRS Disorientation improvement: 0
  BPRS Disorientation score: 1
  BPRS Emotional withdrawal improvement: 4
  BPRS Emotional withdrawal score: 1
  BPRS Excitement improvement: 1
  BPRS Excitement score: 1
  BPRS Grandiosity improvement: 0
  BPRS Grandiosity score: 1
  BPRS Guilt feelings improvement: 5
  BPRS Guilt feelings score: 1
  BPRS Hallucinatory behaviour improvement: 0
  BPRS Hallucinatory behaviour score: 1
  BPRS Hostility improvement: 0
  BPRS Hostility score: 1
  BPRS Mannerisms and Posturing improvement: 0
  BPRS Mannerisms and Posturing score: 1
  BPRS Motor retardation improvement: 0
  BPRS Motor retardation score: 1
  BPRS Somatic Concern improvement: 5
  BPRS Somatic Concern score: 1
  BPRS Suspiciousness improvement: 0
  BPRS Suspiciousness score: 1
  BPRS Tension improvement: 5
  BPRS Tension score: 1
  BPRS Uncooperativeness improvement: 0
  BPRS Uncooperativeness score: 1
  BPRS Unusual Thought Content improvement: 0
  BPRS Unusual Thought Content score: 1
PPD patient 1, IDR 6 mg then 12 mg
  time to clinical remission after administration: ≤ 2 h
PPD patient 1, nominal dose 6 mg
  PES score (intensity of psychedelic experience): 17.3
PPD patient 1, shortly after administration
  changes in vital parameters: temporary, clinically non-relevant increase in heart rate and blood pressure
PPD patient 1, subsequent dose 12 mg
  PES score (intensity of psychedelic experience): 85.7
PPD patient 2
  ECG, safety laboratory analyses, CADSS: unremarkable
  MADRS response (at least 50% improvement) and MADRS remission (total score 10 or less): fulfilled standard criteria
  reported adverse events (mild, resolved spontaneously): vomiting on Day 0 and headache on Day 5
PPD patient 2, nominal dose 6 mg
  PES score (intensity of psychedelic experience): 1
PPD patient 2, shortly after administration
  changes in vital parameters: temporary, clinically non-relevant increase in heart rate
PPD patient 2, subsequent dose 12 mg
  PES score (intensity of psychedelic experience): 94.7
